Laboratory results: patent publication US12157730B2, “Heteroaryl derivative, method for producing same, and pharmaceutical composition comprising same as effective component” (VORONOI INC., priority 2019, dated 2024)

Target: T1, Ba/F3 cell EGFR Exon20 ins NPH (Homo sapiens, UniProt P00533, INS773NPH)
T1 construct: expressed in transfected cells; host or cells: Ba/F3
Assay: Ba/F3 cell proliferation suppression, EGFR Exon20 ins NPH
Format: cell-based
Conditions: GI50 class; Ba/F3 cell line with NPH inserted at Exon20 of EGFR; 72 hours
In short: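 Cells were seeded 24 h before dosing and then treated for 72 hours with compound at final concentrations of 0.3 nM to 50 um. Live cells were measured by CellTiter-Glo luminescence, and GI50 values were derived from growth ratio relative to control across three repeats.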

SMILES	Ba/F3 (NPH) Activity
C=CC(=O)Nc1cc(Nc2cc(N3OCC[C@@H]3c3ccc(C)nc3)ncn2)c(OC)cc1N1CCC(N2CCC(N3CCOCC3)CC2)CC1 [Example 235, N-(4-methoxy-5-((6-((R)-3-(6-methylpyridine-3-yl)isoxazolidine-2-yl)pyrimidine-4-yl)amino)-2-(4-morpholino-[1,4'-bipiperidine]-1'-yl)phenyl)acrylamide]	B (50 nM ≤ GI50 < 500 nM)
C=CC(=O)Nc1cc(Nc2cc(N3OCC[C@@H]3c3cccc(Cl)c3)ncn2)c(OC)cc1N1CCN(C2COC2)CC1 [compound 470, N-(5-((6-((R)-3-(3-chlorophenyl)isoxazolidine-2-yl)pyrimidine-4-yl)amino)-4-methoxy-2-(4-(oxetane-3-yl)piperazine-1-yl)phenyl) acrylamide]	A (GI50 < 50 nM)
C=CC(=O)Nc1cc(Nc2cc(N3OCC[C@@H]3c3cccc(Cl)c3Cl)ncn2)c(OC)cc1N1CCC(N2CCN(C3CCCC3)CC2)CC1 [Example 206, N-(2-(4-(4-cyclopentylpiperazine-1-yl)piperidine-1-yl)-5-((6-((R)-3-(2,3-dichlorophenyl)isoxazolidine-2-yl)pyrimidine-4-yl)amino)-4-methoxyphenyl) acrylamide]	B (50 nM ≤ GI50 < 500 nM)
C=CC(=O)Nc1cc(Nc2cc(N3OCC[C@@H]3c3cc(F)ccc3F)ncn2)c(OC)cc1N1C[C@H]2C[C@@H]1CO2 [compound 328, N-(2-((1R,4R)-2-oxa-5-azabicyclo[2.2.1]heptane-5-yl)-5-((6-((R)-3-(2,5-difluorophenyl)isoxazolidine-2-yl)pyrimidine-4-yl)amino)-4-methoxyphenyl) acrylamide]	A (GI50 < 50 nM)
C=CC(=O)Nc1cc(Nc2cc(N3OCC[C@@H]3c3ccc(F)c(F)c3F)ncn2)c(OC)cc1N1CCC(N2C[C@H]3C[C@@H]2CO3)CC1 [compound 575, N-(2-(4-((1R,4R)-2-oxa-5-azabicyclo [2.2.1]heptane-5-yl)piperidine-1-yl)-4-methoxy-5-((6-((R)-3-(2,3,4-trifluorophenyl)isoxazolidine-2-yl)pyrimidine-4-yl)amino)phenyl)acrylamide]	A (GI50 < 50 nM)

Second part, the compound after the results:

Ba/F3 (NPH) Activity	SMILES
A (GI50 < 50 nM)	C=CC(=O)Nc1cc(Nc2cc(N3OCC[C@@H]3c3cccc(Cl)c3C)ncn2)c(OC)cc1N1CCN(C)CC1 [compound 584, N-(5-((6-((R)-3-(3-chloro-2-methylphenyl)isoxazolidine-2-yl)pyrimidine-4-yl)amino)-4-methoxy-2-(4-methylpiperazine-1-yl)phenyl)acrylamide]
A (GI50 < 50 nM)	C=CC(=O)Nc1cc(Nc2cc(N3OCC[C@@H]3c3cccc(F)c3F)ncn2)c(OC)cc1N1CCN(C)C[C@@H]1C [compound 886, N-(5-((6-((R)-3-(2,3-difluorophenyl)isoxazolidine-2-yl)pyrimidine-4-yl)amino)-2-((S)-2,4-dimethylpiperazine-1-yl)-4-methoxyphenyl) acrylamide]
A (GI50 < 50 nM)	C=CC(=O)Nc1cc(Nc2cc(N3OCC[C@@H]3c3cccc(C(F)(F)F)c3)ncn2)c(OC)cc1N1CCC(N2CCN(C3CC3)[C@@H](C)C2)CC1 [compound 941, N-(2-(4-((S)-4-cyclopropyl-3-methylpiperazine-1-yl)piperidine-1-yl)-4-methoxy-5-((6-((R)-3-(3-(trifluoromethyl)phenyl)isoxazolidine-2-yl)pyrimidine-4-yl)amino)phenyl) acrylamide]
A (GI50 < 50 nM)	C=CC(=O)Nc1cc(Nc2cc(N3OCC[C@@H]3c3ccc(F)c(Cl)c3)ncn2)c(OC)cc1N1CC[C@H](N(C)C)C1 [compound 906, N-(5-((6-((R)-3-(3-chloro-4-fluorophenyl)isoxazolidine-2-yl)pyrimidine-4-yl)amino)-2-((S)-3-(dimethylamino)pyrolidine-1-yl)-4-methoxyphenyl) acrylamide]
